Source: US10117944B2, “Targeted therapeutics” (Madrigal Pharmaceuticals, Inc., priority 2014, dated 2018)

Tests used:
[1] = tested on: HER2; test: HER2 degradation assay with BT-474 cell line; assay type: cell-based, human; conditions: BT-474 cells, overnight incubation
[2] = Stability of SDC-TRAPs in mouse plasma; assay type: in vitro ADME; conditions: 37° C.
Method: SDC-TRAPs were incubated in mouse plasma for 1 h at 37° C. and assayed for integrity at 0, 0.25, 0.5 and 1 h to assess the stability of the SDC-TRAP, e.g., as compared to the effector and targeting compounds. Compound stability was determined using […].

[3] = estimated; cited from earlier work
[4] = phase I trial; cited from earlier work

Structure (SMILES)	IC50 [1] [nM]	% Remaining (1 h) [2] [%]	Patients presenting with peripheral neuropathy [3]	Dose at which dose-limiting toxic effects are observed [4] [mg/m^2]
CCNC(=O)c1nnc(-c2cc(C(C)C)c(O)cc2O)n1-c1ccc(C(=O)N(C)CC[C@]23OB([C@H](CC(C)C)NC(=O)[C@H](Cc4ccccc4)NC(=O)c4cnccn4)O[C@H]2C[C@H]2C[C@@H]3C2(C)C)cc1 [SDC-TRAP-0244, N—((S)-1-(((R)-1-((3aR,4R,6R,7aS)-3a-(2-(4-(3-(2,4-dihydroxy-5-isopropylphenyl)-5-(ethylcarbamoyl)-4H-1,2,4-triazol-4-yl)-N-methylbenzamido)ethyl)-5,5-dimethylhexahydro-4,6-methanobenzo[d][1,3,2]dioxaborol-2-yl)-3-methylbutyl)amino)-1-oxo-3-phenylpropan-2-yl)pyrazine-2-carboxamide]	100	62.9		
CCNC(=O)c1nnc(-c2cc(C(C)C)c(O)cc2O)n1-c1ccc(Oc2ccc(C(=O)NCCCCCCC3(C)OB([C@H](CC(C)C)NC(=O)[C@H](Cc4ccccc4)NC(=O)c4cnccn4)OC3(C)C)cc2)cc1 (stereo partly drawn) [SDC-TRAP-0246, N-((2S)-1-(((1R)-1-(4-(6-(4-(4-(3-(2,4-dihydroxy-5-isopropylphenyl)-5-(ethylcarbamoyl)-4H-1,2,4-triazol-4-yl)phenoxy)benzamido)hexyl)-4,5,5-trimethyl-1,3,2-dioxaborolan-2-yl)-3-methylbutyl)amino)-1-oxo-3-phenylpropan-2-yl)pyrazine-2-carboxamide]	110	63.6		
CCNC(=O)c1nnc(-c2cc(C(C)C)c(O)cc2O)n1-c1ccc(C(=O)NCCCCCCC2(C)OB([C@H](CC(C)C)NC(=O)[C@H](Cc3ccccc3)NC(=O)c3cnccn3)OC2(C)C)cc1 (stereo partly drawn) [SDC-TRAP-0247, N-((2S)-1-(((1R)-1-(4-(6-(4-(3-(2,4-dihydroxy-5-isopropylphenyl)-5-(ethylcarbamoyl)-4H-1,2,4-triazol-4-yl)benzamido)hexyl)-4,5,5-trimethyl-1,3,2-dioxaborolan-2-yl)-3-methylbutyl)amino)-1-oxo-3-phenylpropan-2-yl)pyrazine-2-carboxamide]	36	11.8		
CCNC(=O)c1nnc(-c2cc(C(C)C)c(O)cc2O)n1-c1ccc(Oc2ccc(C(=O)NCC[C@]34OB([C@H](CC(C)C)NC(=O)[C@H](Cc5ccccc5)NC(=O)c5cnccn5)O[C@H]3C[C@@H]3C[C@H]4C3(C)C)cc2)cc1 [SDC-TRAP-0248, N—((S)-1-(((R)-1-((3aR,4S,6S,7aS)-3a-(2-(4-(4-(3-(2,4-dihydroxy-5-isopropylphenyl)-5-(ethylcarbamoyl)-4H-1,2,4-triazol-4-yl)phenoxy)benzamido)ethyl)-5,5-dimethylhexahydro-4,6-methanobenzo[d][1,3,2]dioxaborol-2-yl)-3-methylbutyl)amino)-1-oxo-3-phenylpropan-2-yl)pyrazine-2-carboxamide]	37	54.8		
CCNC(=O)c1nnc(-c2cc(C(C)C)c(O)cc2O)n1-c1ccc(Oc2ccc(C(=O)N3CCC4(CC3)OB([C@H](CC(C)C)NC(=O)[C@H](Cc3ccccc3)NC(=O)c3cnccn3)OC4(C)C)cc2)cc1 [SDC-TRAP-0249, N—((S)-1-(((R)-1-(8-(4-(4-(3-(2,4-dihydroxy-5-isopropylphenyl)-5-(ethylcarbamoyl)-4H-1,2,4-triazol-4-yl)phenoxy)benzoyl)-4,4-dimethyl-1,3-dioxa-8-aza-2-boraspiro[4.5]decan-2-yl)-3-methylbutyl)amino)-1-oxo-3-phenylpropan-2-yl)pyrazine-2-carboxamide]	36	8.93		
CC(C)C[C@H](NC(=O)[C@H](Cc1ccccc1)NC(=O)c1cnccn1)B1OC(C)(C)C2(CCN(C(=O)CCn3ccc4cc(-n5c(O)nnc5-c5cc(C(C)C)c(O)cc5O)ccc43)CC2)O1 [SDC-TRAP-0250, N—((S)-1-(((R)-1-(8-(3-(5-(3-(2,4-dihydroxy-5-isopropylphenyl)-5-hydroxy-4H-1,2,4-triazol-4-yl)-1H-indol-1-yl)propanoyl)-4,4-dimethyl-1,3-dioxa-8-aza-2-boraspiro[4.5]decan-2-yl)-3-methylbutyl)amino)-1-oxo-3-phenylpropan-2-yl)pyrazine-2-carboxamide]	2120	27.0		
CCNC(=O)c1nnc(-c2cc(C(C)C)c(O)cc2O)n1-c1ccc(C(=O)N2CCC3(CC2)OB([C@H](CC(C)C)NC(=O)[C@H](Cc2ccccc2)NC(=O)c2cnccn2)OC3(C)C)cc1 [SDC-TRAP-0251, N—((S)-1-(((R)-1-(8-(4-(3-(2,4-dihydroxy-5-isopropylphenyl)-5-(ethylcarbamoyl)-4H-1,2,4-triazol-4-yl)benzoyl)-4,4-dimethyl-1,3-dioxa-8-aza-2-boraspiro[4.5]decan-2-yl)-3-methylbutyl)amino)-1-oxo-3-phenylpropan-2-yl)pyrazine-2-carboxamide]	> 5000	13.4		
CC(C)C[C@H](NC(=O)[C@H](Cc1ccccc1)NC(=O)c1cnccn1)B(O)O [bortezomib]			more than 40%	1.5
